These results are taken from patent US7268152B2, “Glucocorticoid mimetics, methods of making them, pharmaceutical compositions, and uses thereof” (Boehringer Ingelheim Pharmaceuticals, Inc., priority 2002, dated 2007).

The target of this assay is T1, human glucocorticoid receptor (GR) complex (Homo sapiens, UniProt P04150).
T1 construct: made in house; host or cells: insect expression system (baculovirus lysate)
T1 sequence (P04150 1-777): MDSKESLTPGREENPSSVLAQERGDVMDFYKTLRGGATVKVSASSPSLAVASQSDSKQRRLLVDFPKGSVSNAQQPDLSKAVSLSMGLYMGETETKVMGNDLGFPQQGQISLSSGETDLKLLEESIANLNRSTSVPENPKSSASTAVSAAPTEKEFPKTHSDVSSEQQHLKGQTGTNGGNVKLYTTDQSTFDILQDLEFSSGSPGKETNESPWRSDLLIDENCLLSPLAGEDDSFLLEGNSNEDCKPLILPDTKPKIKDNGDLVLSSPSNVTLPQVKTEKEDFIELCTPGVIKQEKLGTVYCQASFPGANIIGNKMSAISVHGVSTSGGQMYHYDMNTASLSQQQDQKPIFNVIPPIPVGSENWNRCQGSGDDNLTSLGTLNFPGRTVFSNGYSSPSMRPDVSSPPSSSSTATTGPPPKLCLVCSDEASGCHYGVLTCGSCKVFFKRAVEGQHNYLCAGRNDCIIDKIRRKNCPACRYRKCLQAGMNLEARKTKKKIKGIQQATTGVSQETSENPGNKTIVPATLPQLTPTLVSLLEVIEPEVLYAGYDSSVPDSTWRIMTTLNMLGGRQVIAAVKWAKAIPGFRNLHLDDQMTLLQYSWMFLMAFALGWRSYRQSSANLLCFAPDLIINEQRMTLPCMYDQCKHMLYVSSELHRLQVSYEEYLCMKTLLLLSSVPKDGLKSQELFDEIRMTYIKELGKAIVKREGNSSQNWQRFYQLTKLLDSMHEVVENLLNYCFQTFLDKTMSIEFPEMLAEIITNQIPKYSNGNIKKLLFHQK
Kind of assay: Glucocorticoid receptor competitive binding assay (fluorescence polarization). The following applies: competition with TAMRA-labeled dexamethasone. As for the experimental part: Compounds of the invention were evaluated for binding to the steroid receptor by a fluorescence polarization competitive binding assay. Detailed descriptions for preparation of recombinant glucocorticoid receptor (GR) complex used in the assay is described in U.S. provisional application No. 60/291,877, filed May 18, 2001, and incorporated herein by reference in its entirety. Preparation of the tetramethyl rhodamine (TAMRA)-labeled dexamethasone probe was accomplished using a standard literature procedure (M. Pons et al., J. Steroid Biochem., 1985, 22, pp. 267-273).
A. Glucocorticoid Receptor Competitive Binding Assay
Step 1. Characterization of the Fluorescent Probe
The wavelengths for maximum excitation and emission of the fluorescent probe should first be measured. An example of such a probe is rhodamine (TAMRA)-labeled dexamethasone.
The affinity of the probe for the steroid receptor was then determined in a titration experiment. The fluorescence polarization value of the probe in assay buffer was measured on an SLM-8100 fluorometer using the excitation and emission maximum values described above. Aliquots of expression vector lysate were added and fluorescence polarization was measured after each addition until no further change in polarization value was observed. Non-linear least squares regression analysis was used to calculate the dissociation constant of the probe from the polarization values obtained for lysate binding to the probe.
Step 2. Screeningfor Inhibitors of Probe Binding
This assay uses fluorescence polarization (FP) to quantitate the ability of test compounds to compete with tetramethyl rhodamine (TAMRA)-labeled dexamethasone for binding to a human glucocorticoid receptor (GR) complex prepared from an insect expression system. The assay buffer was: 10 mM TES, 50 mM KCl, 20 mM Na2MoO4.2H2O, 1.5 mM EDTA, 0.04% w/v CHAPS, 10% v/v glycerol, 1 mM dithiothreitol, pH 7.4. Test compounds were dissolved to 1 mM in neat DMSO and then further diluted to 10×assay concentration in assay buffer supplemented with 10% v/v DMSO. Test compounds were serially diluted at 10×assay concentrations in 10% DMSO-containing buffer in 96-well polypropylene plates. Binding reaction mixtures were prepared in 96-well black Dynex microtiter plates by sequential addition of the following assay components to each well: […] of 10×test compound solution, 85 μL of GR-containing baculovirus lysate diluted 1:170 in assay buffer, and 50 μL of 15 nM TAMRA-labeled dexamethasone. Positive controls were reaction mixtures containing no test compound; negative controls (blanks) were reaction mixtures containing 0.7 μM to 2 μM dexamethasone. The binding reactions were incubated for 1 hour at room temperature and then read for fluorescence polarization in the LJL Analyst set to 550 nm excitation and 580 nm emission, with the Rhodamine 561 dichroic mirror installed. IC50 values were determined by iterative non-linear curve fitting of the FP signal data to a 4-parameter logistic equation.

As to `COc1ccc(F)cc1C(C)(C)CC(O)(Cc1ccc(F)c(Cl)c1)C(F)(F)F` (centres unmarked) [2-(3-Chloro-4-fluorobenzyl)-1,1,1-trifluoro-4-(5-fluoro-2-methoxyphenyl)-4-methylpentan-2-ol], the half-maximal inhibitory concentration (IC50) is not above 100 nM.
Take `COc1ccc(F)cc1C(C)(C)CC(O)(Cc1cccc(C(F)(F)F)c1F)C(F)(F)F` (centres unmarked) [1,1,1-Trifluoro-4-(5-fluoro-2-methoxyphenyl)-2-(2-fluoro-3-trifluoromethylbenzyl)-4-methylpentan-2-ol]: the half-inhibitory concentration (IC50) is not above 100 nM.
The result for `CC(C)(CC(O)(Cc1ccc(Cl)c(Cl)c1)C(F)(F)F)c1ccccc1` (centres unmarked) [2-(3,4-Dichlorobenzyl)-1,1,1-trifluoro-4-methyl-4-phenylpentan-2-ol] reads not above 100 nM.
On to `CC(C)(CC(O)(Cc1cc(C(F)(F)F)cc(Cl)c1F)C(F)(F)F)c1ccc(Cl)c(Cl)c1` (centres unmarked) [2-(3-Chloro-2-fluoro-5-trifluoromethylbenzyl)-4-(3,4-dichlorophenyl)-1,1,1-trifluoro-4-methylpentan-2-ol], for which the IC50 was not above 100 nM.
The result for `Cc1cc(CC(O)(CC(C)(C)c2cc(F)ccc2O)C(F)(F)F)ccc1F` (centres unmarked) [4-Fluoro-2-[4,4,4-trifluoro-3-(4-fluoro-3-methylbenzyl)-3-hydroxy-1,1-dimethylbutyl]phenol] reads not above 100 nM; that for `COc1ccc(F)cc1C(C)(C)CC(O)(Cc1cccc(C#N)c1)C(F)(F)F` (centres unmarked) [3-[4-(5-Fluoro-2-methoxyphenyl)-2-hydroxy-4-methyl-2-trifluoromethylpentyl]benzonitrile], not above 100 nM.
The result for `CC(C)(CC(O)(Cc1ccc(C#N)cc1Cl)C(F)(F)F)c1ccc(O)cc1` (centres unmarked) [3-Chloro-4-[2-hydroxy-4-(4-hydroxyphenyl)-4-methyl-2-trifluoromethylpentyl]benzonitrile] reads not above 100 nM.
Regarding `CC(C)(CC(O)(Cc1ccc(F)c(F)c1)C(F)(F)F)c1cc(F)ccc1O` (centres unmarked) [2-[3-(3,4-Difluorobenzyl)-4,4,4-trifluoro-3-hydroxy-1,1-dimethylbutyl]4-fluorophenol], the concentration for half-maximal inhibition (IC50) is not above 100 nM.
The result for `CC(C)(CC(O)(Cc1cc(C(F)(F)F)cc(Cl)c1F)C(F)(F)F)c1ccc(F)cc1` (centres unmarked) [2-(3-Chloro-2-fluoro-5-trifluoromethylbenzyl)-1,1,1-trifluoro-4-(4-fluorophenyl)-4-methylpentan-2-ol] reads not above 100 nM; that for `CC(C)(CC(O)(Cc1cc(C(F)(F)F)cc(Cl)c1F)C(F)(F)F)c1cccc2c1OCC2` (centres unmarked) [2-(3-Chloro-2-fluoro-5-trifluoromethylbenzyl)-4-(2,3-dihydrobenzofuran-7-yl)-1,1,1-trifluoro-4-methylpentan-2-ol], not above 100 nM.
The result for `CC(C)(CC(O)(Cc1cc(Cl)cc(Cl)c1)C(F)(F)F)c1cc(F)ccc1O` (centres unmarked) [2-[3-(3,5-Dichlorobenzyl)-4,4,4-trifluoro-3-hydroxy-1,1-dimethylbutyl]4-fluorophenol] reads not above 100 nM; that for `COc1ccc(F)cc1C(C)(C)CC(O)(Cc1c(C)ccc2ccccc12)C(F)(F)F` (centres unmarked) [1,1,1-Trifluoro-4-(5-fluoro-2-methoxyphenyl)-4-methyl-2-(2-methylnaphthalen-1-ylmethyl)pentan-2-ol], not above 100 nM.
The same measure for `COc1ccc(F)cc1C(C)(C)CC(O)(Cc1ccc(C)c2ccccc12)C(F)(F)F` (centres unmarked) [1,1,1-Trifluoro-4-(5-fluoro-2-methoxyphenyl)-4-methyl-2-(4-methylnaphthalen-1-ylmethyl)pentan-2-ol]: not above 100 nM; for `CC(C)(CC(O)(Cc1cc(C(F)(F)F)cc(Cl)c1F)C(F)(F)F)c1cc(C#N)cc2c1OCC2` (centres unmarked) [7-[3-(3-Chloro-2-fluoro-5-trifluoromethylbenzyl)-4,4,4-trifluoro-3-hydroxy-1,1-dimethylbutyl]-2,3-dihydrobenzofuran-5-carbonitrile]: not above 100 nM.
Molecule `COc1ccc(F)cc1C(C)(C)CC(O)(Cc1cc(C(F)(F)F)cc(C(F)(F)F)c1)C(F)(F)F` (centres unmarked) [2-(3,5-Bis-trifluoromethylbenzyl)-1,1,1-trifluoro-4-(5-fluoro-2-methoxyphenyl)-4-methylpentan-2-ol] yielded an IC50 not above 100 nM.
The same measure for `COc1ccc(F)cc1C(C)(C)CC(O)(Cc1ccc(Cl)c(C(F)(F)F)c1)C(F)(F)F` (centres unmarked) [2-(4-Chloro-3-trifluoromethylbenzyl)-1,1,1-trifluoro-4-(5-fluoro-2-methoxyphenyl)-4-methylpentan-2-ol]: not above 100 nM; for `CC(C)(CC(O)(Cc1ccccc1)C(F)(F)F)c1ccccc1` (centres unmarked) [2-Benzyl-1,1,1-trifluoro-4-methyl-4-phenylpentan-2-ol]: not above 100 nM.

As usually defined, the IC50 is the concentration needed to halve the response being measured.
